# Experimental data published in PMC9643456, “Matching amino acids membrane preference profile to improve activity of antimicrobial peptides” (Communications Biology, 2022).
# Ends that are not written are not given here.
# Tests used:
# human red blood cells = experiment: Hemolytic activity; format: cell-based; conditions: red cells of human, 18 h
# Outline: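 Haemolysis was read as A540 of cleared supernatants after 18 h at 37 °C, with 0% and 100% lysis set by peptide-free PBS and 1% Triton X-100 and melittin as positive control. Human RBCs were at 4% final, peptide serially diluted 100–0.78 μM; three replicates.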
# MDR E. faecalis = experiment: microbe, parasite or virus in culture; conditions: for MIC in 0.2% albumin and 0.01% AcOH added CLSI standard condition, MDR E. faecalis: CAMHB plus 0.2% bovine serum albumin and 0.01% acetic acid, values marked * in Table 2; for Minimum inhibitory concentrations, MDR E. faecalis: CLSI broth microdilution, CAMHB with 50 mg/L Ca2+, 10 mg/L Mg2+, 5 × 10^5 CFU/ml, 18 h 37 °C, triplicate, strain ATCC 51575
# Outline: (§1)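 MIC was read by eye as the lowest peptide concentration leaving no visible turbidity. Peptide and mid-log cells (final 5 × 10^5 CFU/ml) were combined in cation-adjusted Mueller–Hinton broth containing 50 mg/L calcium and 10 mg/L magnesium and incubated 18 h at 37 °C.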
# MDR S. aureus = experiment: microbe, parasite or virus in culture; conditions: for MIC in 0.2% albumin and 0.01% AcOH added CLSI standard condition, MDR S. aureus: CAMHB plus 0.2% bovine serum albumin and 0.01% acetic acid, values marked * in Table 2; for Minimum inhibitory concentrations, MDR S. aureus: CLSI broth microdilution, CAMHB with 50 mg/L Ca2+, 10 mg/L Mg2+, 5 × 10^5 CFU/ml, 18 h 37 °C, triplicate, strain KCCM 40510
# Outline: as §1
# MDR P. aeruginosa = experiment: microbe, parasite or virus in culture; conditions: for MIC in 0.2% albumin and 0.01% AcOH added CLSI standard condition, MDR P. aeruginosa: CAMHB plus 0.2% bovine serum albumin and 0.01% acetic acid, values marked * in Table 2; for Minimum inhibitory concentrations, MDR P. aeruginosa: CLSI broth microdilution, CAMHB with 50 mg/L Ca2+, 10 mg/L Mg2+, 5 × 10^5 CFU/ml, 18 h 37 °C, no visible turbidity, triplicate, strain CCARM 2180
# Outline: as §1
# MDR A. baumannii = experiment: microbe, parasite or virus in culture; conditions: for MIC in 0.2% albumin and 0.01% AcOH added CLSI standard condition, MDR A. baumannii: CAMHB plus 0.2% bovine serum albumin and 0.01% acetic acid, values marked * in Table 2; for Minimum inhibitory concentrations, MDR A. baumannii: CLSI broth microdilution, CAMHB with 50 mg/L Ca2+, 10 mg/L Mg2+, 5 × 10^5 CFU/ml, 18 h 37 °C, triplicate, strain ATCC BAA-1605
# Outline: as §1
# [1] = Maximum soluble concentration / turbidity; format: physicochemical; conditions: for solubility: distilled water; for Maximum soluble concentration in PBS: lyophilized peptide reconstructed in PBS at 200-6.25 μM, visible turbidity checked every 12 h for 5 days, at least twice
# Method: Supplementary Methods Bacteria preparation, Antimicrobial peptides preparation, Minimal-inhibitory-concentration measurements, Hemolysis-activity measurements, Tryptophan fluorescence measurements, Isothermal titration calorimetry measurements, Bacteria membrane ion permeation measurements, Outer-inner membrane permeation, Field-emission scanning electron microscopy and Antimicrobial kinetics were performed as described in Materials and Methods. Liposome (LUV) preparation. Bacterial-membrane-mimic DMPC/DMPG unilamellar vesicles (LUV) and mammalian- membrane-mimic PC/cholesterol vesicles with 100-nm diameters were prepared by extrusion. LiposoFast Liposome Factory Basic unit with stabilizer (Avestin, Ottawa, Canada) was used to extrude liposomes 50 times through a polycarbonate membrane filter (pore diameter, 100 nm; filter diameter, 0.75 inches) (Avestin). […] rac-(1-glycerol)) (sodium salt) (DMPG) (Avanti, Alabama, USA); 1,2-Dimyristoyl-sn-glycero-3-phosphocholine (DMPC) (Avanti); and cholesterol (Sigma, Darmstadt, Germany) were used. For circular dichroism, isothermal titration calorimetry, tryptophan fluorescence, and dynamic light scattering experiments, liposomes were reconstructed and resuspendedwith phosphate-buffered saline (PBS; Welgene Inc, Gyeongsangbuk-do, Korea). For calcein-permeation tests, liposomes were reconstructed with calcein solutions (80 mM, 40 mM, 30 mM, 20 mM, and 10 mM) (Sigma, Darmstadt, Germany), purified with Sephadex-G50 columns (Pharmacia biotech, Stockholm, Sweden), and resuspended with PBS. Maximum-soluble -concentration measurements. […] turbidity with PBS. The lowest concentration of peptide without visible turbidity was determined to be the maximu m soluble concentration. Each experiment was performed at least twice. Circular dichroism (CD) spectrum. DMPC/PG -liposome, PC/cholesterol -liposome, and peptide stock solutions were diluted in PBS. For circular dichroism, PBS with neither liposome nor peptides was also prepared. Liposomes and peptides were mixed to […] Samples were transferred into type J/1 cuvettes (Jasco, Tokyo, Japan). Cuvettes were placed into the J -815 circular -dichroism spectrometer (Jasco, Tokyo, Japan). Measurement parameters were as follows: wavelength, 190 -260 nm; data pitch, 0.2 nm; bandwidth, 1.00 nm; […] Each experiment was performed in triplicate. Data below 197 nm was not analyzed because o f experimental difficulties in obtaining those spectra. Each experiment was performed at least twice. Artificial membrane calcein permeation measurements. Calcein fluorescence was used to measure peptide -induced liposome permeation. Calcein solutions (10 mM, 20 mM, or 60 mM) containing PC/PG liposomes and peptides were diluted in PBS ( ×1, ×2, ×3, ×8). […] Liposome solutions (180 μl) were transferred to wells of black, clear -bottomed 96 -well plates (Costar, New York, USA). Peptide […] Liposome-containing plates and peptide -containing plates were inserted into a Flexstation 3 Multi -Mode Microplate Reader (Molecular Devices, California, USA). Peptide solutions (20 μl) were transferred and mixed with liposome solution automatical ly after 30 sec. […] Measurement parameters were as follows: excitation, 490 nm; emission, 520 nm; temperature, 37 °C. […] was transferred and mixed with the liposome -peptide solu tions automatically after 300 sec to acquire fluorescence at maximum leakage. […] Fluorescence measured between 0 -300 sec after addition of 0 μg/ml peptide was considered the baseline. Each experiment was performed at least twice. Dynamic light scattering (DLS) measurements. Dynamic light scattering was used to measure peptide -induced liposome volume changes. PC/PG -liposome stock solutions and peptides were resuspended in PBS. Liposomes and peptides were mixed to […]
Substance,"Hemolysis percent, 25 μM (human red blood cells)","Hemolysis percent, 50 μM (human red blood cells)","Hemolysis percent, 100 μM (human red blood cells)","MIC in 0.2% albumin and 0.01% AcOH added CLSI standard condition, MDR E. faecalis (MDR E. faecalis)","Minimum inhibitory concentrations, MDR E. faecalis (MDR E. faecalis)","MIC in 0.2% albumin and 0.01% AcOH added CLSI standard condition, MDR S. aureus (MDR S. aureus)","Minimum inhibitory concentrations, MDR S. aureus (MDR S. aureus)","MIC in 0.2% albumin and 0.01% AcOH added CLSI standard condition, MDR P. aeruginosa (MDR P. aeruginosa)","Minimum inhibitory concentrations, MDR P. aeruginosa (MDR P. aeruginosa)","MIC in 0.2% albumin and 0.01% AcOH added CLSI standard condition, MDR A. baumannii (MDR A. baumannii)","Minimum inhibitory concentrations, MDR A. baumannii (MDR A. baumannii)",solubility [1],Maximum soluble concentration in PBS [1],"MIC at TM potential condition, S. aureus KCCM 40510 (MDR S. aureus; bacteria OD 0.1 (5 x 10^7 cfu/ml), CAMHB, 1% DMSO)"
GVLVWFRRR-NH2 [Ptg C-ter 2],0.52 ±0.05%,1.14 ±0.02%,1.80 ±0.07%,> 20 µM,> 20 µM,> 20 µM,> 20 µM,> 20 µM,> 20 µM,> 20 µM,> 20 µM,< 500 µM,100 µM,
WLVWIGRRR-NH2 [Hybrid-2],0.66 ±0.07%,1.21 ±0.01%,2.88 ±1.49%,> 20 µM,> 20 µM,> 20 µM,> 20 µM,> 20 µM,> 20 µM,10 µM,,,> 200 µM,
LLLLLWRRR-NH2 [AcWL-2],14.39 ±0.70%,15.13 ± 2.05%,27.97 ±2.79%,10 µM,,10 µM,,> 20 µM,> 20 µM,20 µM,> 20 µM,,50 µM,
GVLVLFRRR-NH2 [Ptg C-ter 1],0.40 ±0.10%,0.99 ±0.26%,1.17 ±0.07%,> 20 µM,> 20 µM,> 20 µM,> 20 µM,> 20 µM,> 20 µM,> 20 µM,> 20 µM,,100 µM,
WLRRWWIRV-NH2 [HLWCopW29-2],1.87 ±0.12%,4.13 ±0.28%,19.60 ±0.50%,10 µM,,10 µM,,> 20 µM,> 20 µM,2.5 µM,5 µM,,> 200 µM,> 20 µM
WLVWVWRRR-NH2 [Hybrid-3],4.26 ±0.63%,5.14 ±0.19%,7.17 ±1.09%,2.5 µM,10 µM,5 µM,10 µM,> 20 µM,> 20 µM,0.63 µM,2.5 µM,,> 200 µM,
GVWVLFRRR-NH2 [Ptg C-ter 3],0.44 ±0.10%,0.80 ±0.09%,1.32 ±0.09%,> 20 µM,> 20 µM,> 20 µM,> 20 µM,> 20 µM,> 20 µM,> 20 µM,> 20 µM,< 500 µM,100 µM,
WRLWRWIVR-NH2 [HLWCopW29-3],1.10 ±0.14%,1.37 ±0.02%,4.45 ±0.23%,20 µM,,20 µM,,> 20 µM,> 20 µM,20 µM,,,> 200 µM,
WLVWVGRRR-NH2 [Hybrid-1],0.88 ±0.24%,1.09 ±0.32%,1.40 ±0.08%,> 20 µM,> 20 µM,> 20 µM,> 20 µM,> 20 µM,> 20 µM,> 20 µM,> 20 µM,,> 200 µM,
